Patent US6359005B1, “Method for the treatment of mania and bipolar disorder” (Warner-Lambert Company, priority 1998, dated 2002)

Assays:
Metabolism in the body = details: in vivo
[1] = Toxicity / tolerability of the compound; details: in vivo
[2] = test system: healthy subjects and patients suffering from anxiety; assay: Studies of healthy subjects and patients suffering from anxiety; type: in vivo, human
Text: This is a novel use for pregabalin which would not be obvious to a medical practitioner of ordinary skill.
This effect will be beneficial in acute mania and will also lead to reducing the risk for onset of a new episode of mania in a predisposed individual. Thus, the prophylactic use of pregabalin for bipolar disorder is also taught.

Compound: CC(C)C[C@H](CN)CC(=O)O [Pregabalin, (S)-3-(aminomethyl)-5-methylhexanoic acid]
- Metabolism in the body (Metabolism in the body): not metabolized in the body
- Tolerability [1]: well-tolerated
- Effects noted in subjects (sedation, calming) ([2]; healthy subjects and patients suffering from anxiety): sedative and calming effects
- Effect on sleep ([2]; human, in vivo): enhance sleep
